Measured values as given in ChEMBL document CHEMBL1144516, “Synthesis and biological activities of analogs of D-glucosyl-l-tyrosine, a humoral factor that stimulates transcription of the acyl-CoA binding protein in the pheromone gland of the Silkmoth, Bombyx mori” (Bioorg Med Chem, 2007).
Calls of active or inactive are those of the source. The calls are words filed in the database; no cut-off is given here.

Tested on: Bombyx mori
Experiment: Stimulation of transcription of acyl-CoA binding protein in pheromone gland of Silkmoth P50 at 0.2 mg after 18 hrs
Format: functional, organism-based

Row | Activity | SMILES
1 | Active | N[C@@H](Cc1ccc(O[C@@H]2O[C@H](CO)[C@H](O)[C@H](O)[C@H]2O)cc1)C(=O)O
2 | inactive | N[C@@H](Cc1ccc(O[C@H]2O[C@@H](CO)[C@H](O)[C@@H](O)[C@@H]2O)cc1)C(=O)O
3 | inactive | N[C@H](Cc1ccc(O[C@H]2O[C@@H](CO)[C@H](O)[C@@H](O)[C@@H]2O)cc1)C(=O)O
4 | inactive | N[C@H](Cc1ccc(OC2O[C@H](CO)[C@@H](O)[C@H](O)[C@H]2O)cc1)C(=O)O (stereo not given in full)
5 | inactive | N[C@H](Cc1ccc(O[C@@H]2O[C@H](CO)[C@H](O)[C@H](O)[C@H]2O)cc1)C(=O)O
